Test results reported in US4639370A, “Pharmaceutical composition” (Farmitalia Carlo Erba S.p.A., priority 1984, dated 1987).
Converted amounts (≈) assume the structure as drawn. Like-named read-outs stand apart in the source and are kept apart here. Blank lines part the entries; values can stand above or below the molecule they belong to.

Tests used:
[1] = Excerpt: The completeness of the amorphization process can be checked by the absence in the Differential Scanning Calorimetry thermogram of the resulting drug-polymer system of the transition peak relative to the solid/liquid endothermic transition of the crystalline drug. The absence of the transition peak means that the enthalpy of melting is practically zero.
This transformation is indicated by the shifting of the original endothermic peak of the DSC thermogram to lower temperatures, which leads to higher dissolution rates and bioavailability.
Differential Scanning Calorimetry Data

[2] = Solubility of indomethacin systems, pH 6.8 buffer, 37° C.; type: physicochemical
Experimental: The indomethacin concentrations were determined by spectrophotometry (λ=317 nm).

[3] = Solubility of griseofulvin systems, pH 7.4 buffer, 37° C.
[4] = Solubility of MAP systems, pH 5.5 phosphate buffer, 37° C.; type: physicochemical
[5] = buffer, pH 2

SMILES: COc1ccc2c(c1)c(CC(=O)O)c(C)n2C(=O)c1ccc(Cl)cc1 [Pure crystalline Indomethacin, indomethacin]
- Heat of Fusion ([1]; indomethacin systems, Table 4): 110.8 J/g
- Melting Point ([1]; indomethacin systems, Table 4): 160.2 °C
- Solubility (indomethacin concentration) ([2]; 5 min): 230.2 µg/mL (≈ 643 µM)
- Solubility (indomethacin concentration) ([2]; 15 min): 358.2 µg/mL (≈ 1000 µM)
- Solubility (indomethacin concentration) ([2]; 1 hr): 482.1 µg/mL (≈ 1350 µM)
- Solubility (indomethacin concentration) ([2]; 3 hrs): 502.8 µg/mL (≈ 1410 µM)
- Solubility (indomethacin concentration) ([2]; 24 hrs): 502.0 µg/mL (≈ 1400 µM)

- Melting Point [1]: 218.8 °C
- % Residual of Original Heat of Fusion ([1]; griseofulvin systems, Table 3): 100%
- Heat of Fusion ([1]; griseofulvin systems, Table 3): 119.22 J/g
- Solubility (griseofulvin concentration) ([3]; 5 min): 9.1 µg/mL (≈ 25.8 µM)
- Solubility (griseofulvin concentration) ([3]; 15 min): 11.0 µg/mL (≈ 31.2 µM)
- Solubility (griseofulvin concentration) ([3]; 1 hr): 10.9 µg/mL (≈ 30.9 µM)
- Solubility (griseofulvin concentration) ([3]; 3 hrs): 11.3 µg/mL (≈ 32 µM)
- Solubility (griseofulvin concentration) ([3]; 24 hrs): 14.9 µg/mL (≈ 42.2 µM)
SMILES: COC1=CC(=O)C[C@@H](C)[C@]12Oc1c(Cl)c(OC)cc(OC)c1C2=O [Pure crystalline Griseofulvin, griseofulvin]

- Melting Point [1]: 205-206 °C
- melting point [1]: 205.6 °
- % Residual of Original Heat of Fusion ([1]; MAP systems, Table 1): 100.0%
- Heat of Fusion ([1]; MAP systems, Table 1): 88.0 J/g
- Solubility (MAP dissolved) ([4]; 5 min): < 0.04 µg/mL
- Solubility (MAP dissolved) ([4]; 15 min): 0.32 µg/mL
- Solubility (MAP dissolved) ([4]; 1 hr): 0.68 µg/mL
- Solubility (MAP dissolved) ([4]; 6 hrs): 1.00 µg/mL
SMILES: CC(=O)O[C@]1(C(C)=O)CC[C@H]2[C@@H]3C[C@H](C)C4=CC(=O)CC[C@]4(C)[C@H]3CC[C@@]21C [Pure crystalline MAP, medroxyprogesterone acetate]

- Melting Point [1]: 212-215 °C
- % Residual of Original Heat of Fusion ([1]; indoprofen systems, Table 2): 100.0%
- Heat of Fusion ([1]; indoprofen systems, Table 2): 134.6 J/g
- Solubility (indoprofen concentration) ([5]; 5 min): 1.6 µg/mL (≈ 5.69 µM)
- Solubility (indoprofen concentration) ([5]; 0.25 h): 3.0 µg/mL (≈ 10.7 µM)
- Solubility (indoprofen concentration) ([5]; 1 h): 4.8 µg/mL (≈ 17.1 µM)
- Solubility (indoprofen concentration) ([5]; 24 h): 10.3 µg/mL (≈ 36.6 µM)
SMILES: CC(C(=O)O)c1ccc(N2Cc3ccccc3C2=O)cc1 (stereo not drawn) [Pure crystalline Indoprofen, indoprofen]
